Assay results from PubChem BioAssay AID248 (DTP/NCI, 2004).
Where “and” joins values, the source holds several entries; their conditions need not be identical. Identical values can stand only once. Toxic doses and inconclusive results are not listed.

System: L1210 leukemia ip in BDF1 mice, survival T/C
Assay: NCI In Vivo Anticancer Drug Screen. Data for tumor model L1210 Leukemia (intraperitoneal) in B6D2F1 (BDF1) mice
Details: endpoint: mean survival time, higher = longer survival
Method in brief: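 Ratio derived from survival: compound-dosed mice over vehicle-dosed mice, all bearing a transplantable tumor.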

[1] = dose: 100.0 mg/kg/injection, schedule: Q01DX009 (ip), vehicle: saline
[2] = dose: 100.0 mg/kg/injection, schedule: Q04DX003 (ip), vehicle: saline
[3] = dose: 200.0 mg/kg/injection, schedule: Q01DX009 (ip), vehicle: saline
[4] = dose: 200.0 mg/kg/injection, schedule: Q04DX003 (ip), vehicle: saline
[5] = dose: 400.0 mg/kg/injection, schedule: Q01DX009 (ip), vehicle: saline
[6] = dose: 400.0 mg/kg/injection, schedule: Q04DX003 (ip), vehicle: saline
[7] = dose: 100.0 mg/kg/injection, schedule: Q01DX001 (ip), vehicle: saline
[8] = dose: 200.0 mg/kg/injection, schedule: Q01DX001 (ip), vehicle: saline
[9] = dose: 400.0 mg/kg/injection, schedule: Q01DX001 (ip), vehicle: saline
[10] = dose: 100.0 mg/kg/injection, schedule: Q01DX001 (ip), vehicle: carboxymethylcellulose (CMC)
[11] = dose: 200.0 mg/kg/injection, schedule: Q01DX001 (ip), vehicle: carboxymethylcellulose (CMC)
[12] = dose: 400.0 mg/kg/injection, schedule: Q01DX001 (ip), vehicle: carboxymethylcellulose (CMC)
[13] = dose: 50.0 mg/kg/injection, schedule: Q01DX009 (ip), vehicle: saline
[14] = dose: 100.0 mg/kg/injection, schedule: Q04DX003 (ip), vehicle: Klucel (hydroxypropylcellulose) (HPC)
[15] = dose: 200.0 mg/kg/injection, schedule: Q04DX003 (ip), vehicle: Klucel (hydroxypropylcellulose) (HPC)
[16] = dose: 100.0 mg/kg/injection, schedule: Q01DX009 (ip), vehicle: Klucel (hydroxypropylcellulose) (HPC)
[17] = dose: 200.0 mg/kg/injection, schedule: Q01DX009 (ip), vehicle: Klucel (hydroxypropylcellulose) (HPC)
[18] = dose: 400.0 mg/kg/injection, schedule: Q01DX009 (ip), vehicle: Klucel (hydroxypropylcellulose) (HPC)
[19] = dose: 100.0 mg/kg/injection, schedule: Q04DX003 (ip), vehicle: saline sonified
[20] = dose: 200.0 mg/kg/injection, schedule: Q04DX003 (ip), vehicle: saline sonified
[21] = dose: 400.0 mg/kg/injection, schedule: Q04DX003 (ip), vehicle: saline sonified

Compound: COC(=O)CNC(=O)C(Cc1ccc(OCc2ccccc2)cc1)NC(=O)OC(C)(C)C (stereo unspecified)
- T/C [1]: 98 % of control
- T/C [2]: 93 % of control
- T/C [3]: 106 % of control
- T/C [4]: 97 % of control
- T/C [5]: 96 % of control
- T/C [6]: 97 % of control

Compound: Cn1c(N)c(N=CC2CCCCC2)c(=O)n(C)c1=O
- T/C [7]: 100 % of control
- T/C [8]: 100 % of control
- T/C [9]: 102 % of control

Compound: CN1C(c2ccccc2)(c2ccccc2)c2ccccc2S1(=O)=O
- T/C [10]: 95 % of control
- T/C [11]: 95 % of control
- T/C [12]: 93 % of control

Compound: CNNC(=O)c1cccnc1
- T/C (dose: 25.0 mg/kg/injection, schedule: Q01DX001 (ip), vehicle: saline): 95 % of control
- T/C (dose: 25.0 mg/kg/injection, schedule: Q01DX009 (ip), vehicle: saline): 95 % of control and 98 % of control
- T/C (dose: 25.0 mg/kg/injection, schedule: Q04DX003 (ip), vehicle: saline): 105 % of control
- T/C (dose: 50.0 mg/kg/injection, schedule: Q01DX001 (ip), vehicle: saline): 100 % of control
- T/C [13]: 95 % of control and 100 % of control
- T/C (dose: 50.0 mg/kg/injection, schedule: Q04DX003 (ip), vehicle: saline): 104 % of control
- T/C [7]: 102 % of control
- T/C [1]: 95 % of control and 98 % of control
- T/C [2]: 98 % of control

Compound: Cc1ncc(CCl)c(CCl)c1O
- T/C [13]: 95 % of control
- T/C [1]: 92 % of control
- T/C [2]: 98 % of control
- T/C [3]: 97 % of control
- T/C [4]: 97 % of control

Compound: CCCCN=C([Se])NCCCC
- T/C (dose: 15.0 mg/kg/injection, schedule: Q01DX015 (ip), vehicle: carboxymethylcellulose (CMC)): 103 % of control
- T/C (dose: 30.0 mg/kg/injection, schedule: Q01DX015 (ip), vehicle: carboxymethylcellulose (CMC)): 96 % of control
- T/C (dose: 60.0 mg/kg/injection, schedule: Q01DX015 (ip), vehicle: carboxymethylcellulose (CMC)): 97 % of control

Compound: O=NN(CCCl)C(=O)C1CCCCC1
- T/C (dose: 4.5 mg/kg/injection, schedule: Q01DX001 (ip), vehicle: carboxymethylcellulose (CMC)): 110 % of control
- T/C (dose: 9.0 mg/kg/injection, schedule: Q01DX001 (ip), vehicle: carboxymethylcellulose (CMC)): 112 % of control
- T/C (dose: 18.0 mg/kg/injection, schedule: Q01DX001 (ip), vehicle: carboxymethylcellulose (CMC)): 113 % of control
- T/C (dose: 26.0 mg/kg/injection, schedule: Q01DX001 (ip), vehicle: carboxymethylcellulose (CMC)): 112 % of control
- T/C (dose: 40.0 mg/kg/injection, schedule: Q01DX001 (ip), vehicle: carboxymethylcellulose (CMC)): 108 % of control
- T/C (dose: 60.0 mg/kg/injection, schedule: Q01DX001 (ip), vehicle: carboxymethylcellulose (CMC)): 110 % of control
- T/C (dose: 93.0 mg/kg/injection, schedule: Q01DX001 (ip), vehicle: carboxymethylcellulose (CMC)): 113 % of control
- T/C (dose: 187.0 mg/kg/injection, schedule: Q01DX001 (ip), vehicle: carboxymethylcellulose (CMC)): 116 % of control

Compound: NC(N)=NCCS(=O)(=O)Nc1ccc(Nc2c3ccccc3nc3cc([N+](=O)[O-])ccc23)cc1
- T/C (dose: 0.75 mg/kg/injection, schedule: Q01DX009 (ip), vehicle: water): 121 % of control
- T/C (dose: 6.0 mg/kg/injection, schedule: Q01DX009 (ip), vehicle: water): 163 % of control
- T/C (dose: 25.0 mg/kg/injection, schedule: Q04DX003 (ip), vehicle: water): 157 % of control
- T/C (dose: 50.0 mg/kg/injection, schedule: Q04DX003 (ip), vehicle: water): 175 % of control

Compound: O=S(=O)(c1ccccc1)c1ccccc1
- T/C [14]: 104 % of control
- T/C (dose: 100.0 mg/kg/injection, schedule: Q04DX003 (ip), vehicle: saline with Tween-80): 95 % of control
- T/C [15]: 111 % of control
- T/C (dose: 200.0 mg/kg/injection, schedule: Q04DX003 (ip), vehicle: saline with Tween-80): 103 % of control
- T/C (dose: 400.0 mg/kg/injection, schedule: Q04DX003 (ip), vehicle: Klucel (hydroxypropylcellulose) (HPC)): 87 % of control
- T/C (dose: 400.0 mg/kg/injection, schedule: Q04DX003 (ip), vehicle: saline with Tween-80): 89 % of control

Compound: S=P(NCCCCCCCCNP(=S)(N1CC1)N1CC1)(N1CC1)N1CC1
- T/C [10]: 102 % of control
- T/C [11]: 119 % of control
- T/C [12]: 107 % of control

Compound: Oc1cccc(C2=NNC(c3cccc(O)c3)=NN2)c1
- T/C (dose: 100.0 mg/kg/injection, schedule: Q04DX003 (ip), vehicle: gum acacia): 93 % of control
- T/C (dose: 200.0 mg/kg/injection, schedule: Q04DX003 (ip), vehicle: gum acacia): 89 % of control
- T/C (dose: 400.0 mg/kg/injection, schedule: Q04DX003 (ip), vehicle: gum acacia): 86 % of control

Compound: Cc1noc(C)c1CC1(c2ccccc2)CCCCC1=O (stereo unspecified)
- T/C [16]: 93 % of control
- T/C [17]: 95 % of control
- T/C [18]: 93 % of control

Compound: C1CCC2(CC1)OOC1(CCCCC1)OOC1(CCCC1)OO2
- T/C (dose: 50.0 mg/kg/injection, schedule: Q01DX009 (ip), vehicle: saline with Tween-80): 104 % of control
- T/C (dose: 100.0 mg/kg/injection, schedule: Q01DX009 (ip), vehicle: saline with Tween-80): 96 % of control
- T/C (dose: 200.0 mg/kg/injection, schedule: Q01DX009 (ip), vehicle: saline with Tween-80): 110 % of control

Compound: Cc1ccc2c(c1)CN(C13CC4CC(CC(C4)C1)C3)CO2
- T/C [19]: 91 % of control
- T/C [20]: 102 % of control
- T/C [21]: 93 % of control

Compound: Nc1ccc(/C=C2\C=Cc3ccccc32)cc1
- T/C (dose: 8.5 mg/kg/injection, schedule: Q01DX009 (ip), vehicle: saline): 98 % of control
- T/C (dose: 17.0 mg/kg/injection, schedule: Q01DX001 (ip), vehicle: acetone): 98 % of control
- T/C (dose: 17.0 mg/kg/injection, schedule: Q01DX009 (ip), vehicle: saline): 97 % of control
- T/C (dose: 35.0 mg/kg/injection, schedule: Q01DX001 (ip), vehicle: acetone): 105 % of control
- T/C (dose: 35.0 mg/kg/injection, schedule: Q01DX009 (ip), vehicle: saline): 101 % of control
- T/C (dose: 100.0 mg/kg/injection, schedule: Q01DX001 (ip), vehicle: olive oil, sesame oil, peanut oil): 94 % of control

Compound: CCOCCOCCC(=O)OC
- T/C (dose: 62.5 mg/kg/injection, schedule: Q01DX001 (ip), vehicle: Klucel (hydroxypropylcellulose) (HPC)): 95 % of control
- T/C (dose: 125.0 mg/kg/injection, schedule: Q01DX001 (ip), vehicle: Klucel (hydroxypropylcellulose) (HPC)): 89 % of control
- T/C (dose: 250.0 mg/kg/injection, schedule: Q01DX001 (ip), vehicle: Klucel (hydroxypropylcellulose) (HPC)): 113 % of control

Compound: Cc1ccc([N+](=O)[O-])cc1NC(=O)N(CCC#N)C1CCCCC1
- T/C [16]: 101 % of control
- T/C [17]: 105 % of control
- T/C [18]: 95 % of control

Compound: COc1cc(C=Nc2ccc3c(c2)Cc2ccccc2-3)ccc1O
- T/C [19]: 94 % of control
- T/C [20]: 97 % of control
- T/C [21]: 95 % of control

Compound: CCOC(=O)c1csc(C)n1
- T/C [1]: 103 % of control
- T/C [2]: 99 % of control
- T/C [3]: 102 % of control
- T/C [4]: 96 % of control
- T/C [5]: 109 % of control
- T/C [6]: 92 % of control

Compound: CCC(=O)/C=C/c1ccc([N+](=O)[O-])cc1
- T/C (dose: 100.0 mg/kg/injection, schedule: Q04DX003 (ip), vehicle: other): 101 % of control
- T/C (dose: 200.0 mg/kg/injection, schedule: Q04DX003 (ip), vehicle: other): 93 % of control
- T/C (dose: 400.0 mg/kg/injection, schedule: Q04DX003 (ip), vehicle: other): 93 % of control

Compound: NC(=O)N1CCCC1
- T/C [7]: 98 % of control
- T/C [8]: 95 % of control
- T/C [9]: 95 % of control

Compound: O=[N+]([O-])c1ccc(S(=O)CCl)cc1 (stereo unspecified)
- T/C [14]: 98 % of control
- T/C [15]: 105 % of control
